Results published in US20180186742A1, “PICOLINAMIDES AS FUNGICIDES” (Dow AgroSciences LLC, priority 2017, published 2018).
Where two headings read alike, the source gives them in different places.

Assays:
Type in all cases: in vivo
[1] = tested on: Zymoseptoria tritici; experiment: Leaf blotch of wheat (SEPTTR), disease control on wheat seedlings; settings: low volume application at 121.5 g/H
Outline: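 Yuma wheat seedlings with the first leaf fully emerged were sprayed to run-off with compound in acetone plus nine volumes of water containing 110 ppm Triton X-100; track-spray tests used EC formulations with 0.1% Trycol 5941. Z. tritici inoculation came before or after treatment, followed by 100% RH dew periods and a 20 °C greenhouse. Percent control was calculated from severity versus untreated plants.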

[2] = tested on: Phakopsora pachyrhizi; experiment: Asian soybean rust (PHAKPA), disease control on soybean seedlings; settings: High volume application at 25 ppm
Description: Technical grades of materials were dissolved in acetone, which were then mixed with nine volumes of water containing 0.011% Tween 20. The fungicide solutions were applied onto soybean seedlings using an automated booth sprayer to run-off. All sprayed plants were allowed to air dry prior to further handling.
Soybean plants (variety Williams 82) were grown in soil-less Metro mix, with one plant per pot. Two week old seedlings were used for testing. Plants were inoculated either 3 days prior to or 1 day after fungicide treatments. Plants were incubated for 24 h in a dark dew room at 22° C. and 100% relative humidity then transferred to a growth room at 23° C. for disease to develop. Disease severity was assessed on the sprayed leaves.

[3] = tested on: Puccinia triticina; experiment: Wheat brown rust (PUCCRT), disease control on wheat seedlings; settings: low volume application at 121.5 g/H
Outline: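 Compounds in acetone, diluted with nine volumes of water containing 110 ppm Triton X-100, sprayed to run-off on first-leaf Yuma wheat seedlings; track-spray tests used EC formulations with 0.1% Trycol 5941. Puccinia triticina spores applied before or after treatment. Overnight dark dew room at 22° C, 100% humidity, then greenhouse at 24° C.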

[4] = 24 h, 1 Day Protectant, read-out: SEPTTR disease control, 1DP, LV activity
[5] = 72 h, 3 Day Curative, read-out: SEPTTR disease control, 3DC, LV activity
[6] = 24 h, 1 Day Protectant, read-out: PHAKPA 1DP disease control rating
[7] = 72 h, 3 Day Curative, read-out: PHAKPA 3DC disease control rating
[8] = 24 h, 1 Day Protectant, read-out: PUCCRT disease control, 1DP, LV activity
[9] = 72 h, 3 Day Curative, read-out: PUCCRT disease control, 3DC, LV activity
[10] = 24 h, 1 Day Protectant, wheat leaf blotch, read-out: SEPTTR 1DP disease control, LV activity
[11] = 72 h, 3 Day Curative, wheat leaf blotch, read-out: SEPTTR 3DC disease control, LV activity
[12] = 24 h, 1 Day Protectant, wheat brown rust, read-out: PUCCRT 1DP disease control, LV activity
[13] = 72 h, 3 Day Curative, wheat brown rust, read-out: PUCCRT 3DC disease control, LV activity

SMILES	pest or weed control at 121.5 g/ha [1, 4]	pest or weed control at 121.5 g/ha [1, 5]	pest or weed control at 25 ppm [2, 6]	pest or weed control at 25 ppm [2, 7]	pest or weed control at 121.5 g/ha [3, 8]	pest or weed control at 121.5 g/ha [3, 9]	pest or weed control at 121.5 g/ha [1, 10]	pest or weed control at 121.5 g/ha [1, 11]	pest or weed control at 121.5 g/ha [3, 12]	pest or weed control at 121.5 g/ha [3, 13]
COc1ccnc2c(=O)n([C@@H](C)C(=O)O[C@@H](C)[C@@H](c3ccc(C)cc3C)C(C)C)c(=O)oc12 [Compound 208]	< 0%	< 80%	< 80%	< 0%	< 80%	< 80%				
COc1ccnc(C(=O)N[C@@H](C)C(=O)O[C@@H](C)[C@@H](c2ccc(C)cc2C)C(C)C)c1OCOC(C)=O [Compound 204]	< 0%	< 80%	< 80%	< 0%	> 80%	< 80%				
COc1ccnc(C(=O)N[C@@H](C)C(=O)O[C@@H](C)[C@H](c2ccc(C)c(F)c2)C(C)C)c1OC(C)=O [Compound 243]	< 0%	< 80%	> 80%	< 80%	> 80%	< 80%				
COc1ccnc(C(=O)N[C@@H](C)C(=O)O[C@@H](C)[C@@H](c2ccc(C)cc2C)C2CCC2)c1OCOC(C)=O [Compound 240]	< 80%	> 80%	> 80%	< 80%	> 80%	> 80%				
COc1cc(F)ccc1[C@@H](C1CCCC1)[C@H](C)OC(=O)[C@H](C)NC(=O)c1nccc(OC)c1OCOC(C)=O [Compound 234]	< 80%	< 80%	> 80%	< 0%	> 80%	< 80%				
COc1ccnc(C(=O)N[C@@H](C)C(=O)O[C@@H](C)[C@@H](c2ccc(F)cc2C)C2CCCC2)c1OC(C)=O [Compound 180]	< 80%	< 80%	< 80%	< 80%	> 80%	< 80%				
COc1ccnc(C(=O)N[C@@H](C)C(=O)O[C@@H](C)[C@H](c2ccc(F)cc2C)C2CCC2)c1OC(C)=O [Compound 189]	> 80%	> 80%	> 80%	< 80%	> 80%	< 80%				
COc1ccnc(C(=O)N[C@@H](C)C(=O)O[C@@H](C)[C@H](c2ccc(F)cc2C)C(C)C)c1OCOC(C)=O [Compound 215]	> 80%	> 80%	> 80%	> 80%	> 80%	> 80%				
COc1ccnc(C(=O)N[C@@H](C)C(=O)O[C@@H](C)[C@H](c2ccc(F)cc2C)C2CCCC2)c1OC(C)=O [Compound 184]	> 80%	> 80%	> 80%	< 80%	> 80%	> 80%				
COc1ccnc(C(=O)N[C@@H](C)C(=O)O[C@@H](C)[C@H](c2ccc(OC(C)C)cc2)C(C)C)c1OCOC(C)=O [Compound 379]			< 80%	< 80%			< 80%	< 80%	> 80%	< 80%
COc1ccnc(C(=O)N[C@@H](C)C(=O)O[C@@H](C)[C@H](c2ccc(F)cc2C)C2CCCCC2)c1OC(C)=O [Compound 185]	> 80%	> 80%	> 80%	< 80%	> 80%	< 80%				
CCC(C)[C@H](c1ccc(F)cc1C)[C@H](C)OC(=O)[C@H](C)NC(=O)c1nccc(OC)c1OC(C)=O (stereo partly drawn) [Compound 182]	< 80%	> 80%	< 80%	< 80%	> 80%	< 80%				
COc1ccnc(C(=O)N[C@@H](C)C(=O)O[C@@H](C)[C@H](c2ccc(OC(F)(F)F)cc2)C(C)C)c1OC(C)=O [Compound 381]			< 80%	< 80%			> 80%	> 80%	> 80%	< 80%
COc1ccnc(C(=O)N[C@@H](C)C(=O)O[C@@H](C)[C@H](c2ccc(OC(F)(F)F)cc2)C(C)C)c1OCOC(C)=O [Compound 378]			< 80%	< 80%			> 80%	> 80%	> 80%	> 80%
CCC(CC)[C@@H](c1ccc(F)cc1OC)[C@H](C)OC(=O)[C@H](C)NC(=O)c1nccc(OC)c1OC(C)=O [Compound 229]	> 80%	> 80%	> 80%	< 80%	> 80%	< 80%				
COc1ccnc(C(=O)N[C@@H](C)C(=O)O[C@@H](C)[C@@H](c2ccc(C)cc2C)C2CCCCC2)c1OCOC(C)=O [Compound 206]	< 80%	< 80%	< 80%	< 0%	< 80%	< 0%				
COc1ccnc(C(=O)N[C@@H](C)C(=O)O[C@@H](C)[C@H](c2ccc(Cl)cc2)C(C)C)c1OC(C)=O [Compound 242]	> 80%	> 80%	> 80%	< 80%	> 80%	> 80%				
COc1ccnc(C(=O)N[C@@H](C)C(=O)O[C@H](C)[C@H](c2ccc(F)cc2C)C2CCCCC2)c1OC(C)=O [Compound 191]	< 80%	< 80%	< 80%	< 0%	< 0%	< 80%				
COc1ccnc(C(=S)N[C@@H](C)C(=O)O[C@@H](C)[C@@H](c2ccccc2)C2CCCC2)c1OC(C)=O [Compound 177]	< 80%	< 0%	> 80%	< 0%	< 80%	< 0%				
COc1ccnc(C(=O)N[C@@H](C)C(=O)O[C@H](C)[C@H](c2ccc(F)cc2C)C(C)C)c1OC(C)=O [Compound 192]	< 0%	> 80%	> 80%	< 80%	> 80%	< 80%				
COc1cc(F)ccc1[C@H](C(C)C)[C@H](C)OC(=O)[C@H](C)NC(=O)c1nccc(OC)c1OCOC(C)=O [Compound 237]	< 80%	< 80%	> 80%	> 80%	> 80%	> 80%				
COc1ccnc(C(=O)N[C@H](C(=O)O[C@@H](C)[C@H](c2ccc(F)cc2C)C(C)C)C(C)C)c1OC(C)=O [Compound 347]	> 80%	> 80%	> 80%	> 80%	> 80%	< 80%				
COc1ccnc(C(=O)N[C@@H](C)C(=O)O[C@@H](C)[C@@H](c2ccc(C)cc2C)C2CCCC2)c1OC(C)=O [Compound 201]	< 80%	< 80%	< 80%	< 0%	> 80%	< 80%				
